From patent publication US20120088688A1, “IN VITRO ASSAY FOR IDENTIFICATION OF ALLERGENIC PROTEINS” (BIOVATOR TECHNOLOGIES AB, priority 2005, published 2012) come the findings set out here.

This assay relates to Mono Mac 6 cells. The experiment in a line: Micro array gene expression profiling (HG_U95Av2 chip) of Mono Mac 6 cells following allergen treatment. It is filed as cell-based, human. The following applies: for Number of up regulated genes: Mono Mac 6 cells. The method, then: The cell line Mono Mac 6 (AstraZeneca Cell Storage and Retrieval, Alderley Park, UK) was cultivated in RPMI 1640 medium with 10 mM HEPES buffer (Gibco, UK), 2 mM L-glutamine, 9 μg/mL human insulin, 1.0 mM sodium pyruvate, 10% fetal bovine serum, 5.6 μl/mL glucose, 100 U/mL penicillin and 100 μg/ml streptomycin. Fresh medium for cultivation was added or changed frequently (every 2:nd or 3:rd day), maintaining a cell density of viable cells/mL between 0.5×10^6 and 1.0×10^6. The cell line was in suspension/loosely adherent and sub cultures were prepared when needed by scraping. The plates were cultivated in an inclined position at 37° C. and 5% CO2 in a Galaxy R (Lab Rum Klimat Ab, Sweden) incubator
Cells were treated with four different allergens, according to table 2, in duplicate cultures. The test substances were all diluted in double distilled water. The duplicate cultures were treated at different exposure days. All treatments were 6 hours and control cells were left unexposed.
20 individual cultures with 500 000 cells per culture were treated identical for each substance. After 6 h exposure identical treated cells were harvest and pooled into a 50 ml Falcontube, pelleted at 540 g for 5 minutes in 7° C. […] The supernatant was removed and the cells were freeze-dried with liquid nitrogen and thereafter put into −152° C. freezer until further preparation.
Experimental procedures were performed according to Gene Chip®Expression Analysis Technical Manual (rev1, 2001) with minor modifications as described. Total RNA was prepared from frozen cells, according to Qiagen Rneasy Mini kit (Qiagen/WVR, Sweden). 30 μg of total RNA was used for cDNA synthesis and in vitro transcript labeling with biotin was performed according to Enzo BioArray RNA Transcription Labeling Kit (Enzo, U.S.A). cRNA quality was analyzed on a Agilent Bioanalyser 2001 (Agilent Technologies, U.S.A) and the concentration was measured on a Nano Droop (Saveen Werner, Sweden). 15 μg of fragmented cRNA was added to the hybridization-cocktail and hybridized to the HG_U95Av2 chip (Affymetrix, U.S.A) for 16 h at 45° C. The arrays were washed and stained with biotinylated anti streptavidin antibodies according to the EukGE_W2v4 protocol (Affymetrix, U.S.A) in the fluid station (Affymetrix, U.S.A).
Data obtained were analyzed using the MAS 5.0 model base. A detection call was calculated for all probe sets, representing if the transcript of a particular gene was present or absent, all absent genes were excluded from analysis.
To verify outliers and trends in data exploratory analysis was made with principle component analysis (PCA). Statistic analysis was made using student's t-test. It weights the variance in individual groups with the variance in all groups. Student's t-test was used to test for statistical significance compared with control. The p-value obtained describes the probability of statistically finding a false positive probe set. Fold change (fc) represents the quotient between the two compared chip.
The average signal value from all treated groups were compared with control signals.
All probe sets with signal value<50 in all groups were excluded from analysis. […] The remaining probe sets were ranked after fc.

Where a name gives a salt, the structure may show the parent alone.

On to `CC1(C)S[C@@H]2[C@H](NC(=O)Cc3ccccc3)C(=O)N2[C@H]1C(=O)O` [penicillin G, Benzylpenicillin sodium salt], for which the “Number of up regulated genes” value runs as follows: (cut off fc >2) 4; (cut off fc >4) 1; (cut off fc >6) 0; (cut off fc >10) 0. For the same compound, the “vs ctrl fc, GPR15” value (gene GPR15) is reported as 2.2. In addition, for the setting “gene IFITM3”, the “vs ctrl fc, IFITM3” value was 3.3. Moreover, the “vs ctrl fc, XK” value (gene XK) is listed as 2.6. The “vs ctrl fc, c 33.28 unnamed HERV-H protein mRNA” value (systematic name none, c 33.28 unnamed HERV-H protein mRNA) was 9.1.
